Consider 29 compounds from ChEMBL document CHEMBL5038654, “Discovery of Spiro-azaindoline Inhibitors of Hematopoietic Progenitor Kinase 1 (HPK1)” (ACS Med Chem Lett, 2022).

For one series, the target named is Cytochrome P450 3A4 (Homo sapiens, UniProt P08684). The series can be described thus: Inhibition of CYP3A4 in human liver microsomes using testosterone as substrate by TDI- high-throughput based mass spectrometry method. It counts as ADME. A general note: Liver microsomes are a subcellular fraction often used to study metabolism.
Series [1] concerns the target T1, Mitogen-activated protein kinase kinase kinase kinase 1 (Homo sapiens, UniProt Q92918). The experiment in a line: Inhibition of HPK1 (unknown origin) followed by anti-GST antibody incubated for 60 mins measured after 1 hr by TR-FRET based LanthaScreen Eu-Kinase binding assay. A general note: TR-FRET usually uses a lanthanide donor and a delayed reading to cut background.

The nature of series [2]: Metabolic stability in mouse liver microsomes assessed as intrinsic clearance followed by substrate addition incubated for 30 mins by LC-MS/MS analysis. Type of series: ADME, Microsome. The following applies: read-out: CLH.
The nature of series [3]: Metabolic stability in rat liver microsomes assessed as intrinsic clearance followed by substrate addition incubated for 30 mins by LC-MS/MS analysis. It counts as ADME, Microsome. The following applies: read-out: CLH.
Series [4] can be described thus: Metabolic stability in human liver microsomes assessed as intrinsic clearance followed by substrate addition incubated for 30 mins by LC-MS/MS analysis. The note with it: read-out: CLH. It counts as ADME, Microsome.
Series [5] can be described thus: Apparent permeability across apical to basolateral side in dog MDCK1 cells at 10 uM by LC-MS/MS analysis. Type of series: ADME, cell-based, Canis lupus familiaris. The note with it: for Papp A→B at 10 µM: MDCK.
For series [6], the target named is T1, Mitogen-activated protein kinase kinase kinase kinase 1. The experiment in a line: Inhibition of HPK1 in human Jurkat E6.1 cells assessed as SLP76 phosphorylation incubated for 30 mins followed by anti-CD3, biotinylated anti-SLP76 and TMB substrate addition measured after 3 hrs by ELISA assay. Type of series: cell-based. On the technique in general: An ELISA detects its analyte on a solid surface through an enzyme-linked reagent.

The target is the same in series [7]. The series can be described thus: Inhibition of HPK1 (unknown origin) preincubated for 30 mins with compound followed by Biotin-SLP-76 substrate in presence of ATP incubated for 60 mins measured after 1 hr by TR-FRET based HTRF enzymatic assay.
A short description of series [8]: Blood clearance in female C57BL/6 mouse at 1 mg/kg, iv administered as bolus dose measured upto 24 hrs by LC-MS/MS analysis. It counts as ADME, organism-based. The note with it: whole blood.
Series [9] in a line: Oral bioavailability in female C57BL/6 mouse at 25 mg/kg measured upto 24 hrs by LC-MS/MS analysis. It counts as ADME, organism-based. The note with it: in vivo.
Series [10] in a line: Metabolic stability in mouse hepatocytes assessed as hepatic clearance. Type of series: ADME, cell-based, Hepatocyte. Further details: dose or concentration left out as unconfirmed.
Another series deals with T-cell line. The series can be described thus: Effects of compound on IL-2 production in human pan T-cells followed by anti-CD3/CD28-stimulation assessed as increase in IL-2 level incubated for 30 mins by ELISA method. The note with it: 0.5 h. Type of series: functional, cell-based.
The nature of series [11]: Volume of distribution in female C57BL/6 mouse at 1 mg/kg, iv administered as bolus dose measured upto 24 hrs by LC-MS/MS analysis. It counts as ADME, organism-based. The following applies: in vivo.
A short description of series [12]: Metabolic stability in rat hepatocytes assessed as hepatic clearance. It counts as ADME, cell-based, Hepatocyte. The arrangement: dose or concentration left out as unconfirmed.
Series [13] is described as follows: Metabolic stability in human hepatocytes assessed as hepatic clearance at 1 uM measured upto 3 hrs by LC-MS/MS analysis. Type of series: ADME, cell-based, Hepatocyte.

T1 sequence (Q92918 whole entry): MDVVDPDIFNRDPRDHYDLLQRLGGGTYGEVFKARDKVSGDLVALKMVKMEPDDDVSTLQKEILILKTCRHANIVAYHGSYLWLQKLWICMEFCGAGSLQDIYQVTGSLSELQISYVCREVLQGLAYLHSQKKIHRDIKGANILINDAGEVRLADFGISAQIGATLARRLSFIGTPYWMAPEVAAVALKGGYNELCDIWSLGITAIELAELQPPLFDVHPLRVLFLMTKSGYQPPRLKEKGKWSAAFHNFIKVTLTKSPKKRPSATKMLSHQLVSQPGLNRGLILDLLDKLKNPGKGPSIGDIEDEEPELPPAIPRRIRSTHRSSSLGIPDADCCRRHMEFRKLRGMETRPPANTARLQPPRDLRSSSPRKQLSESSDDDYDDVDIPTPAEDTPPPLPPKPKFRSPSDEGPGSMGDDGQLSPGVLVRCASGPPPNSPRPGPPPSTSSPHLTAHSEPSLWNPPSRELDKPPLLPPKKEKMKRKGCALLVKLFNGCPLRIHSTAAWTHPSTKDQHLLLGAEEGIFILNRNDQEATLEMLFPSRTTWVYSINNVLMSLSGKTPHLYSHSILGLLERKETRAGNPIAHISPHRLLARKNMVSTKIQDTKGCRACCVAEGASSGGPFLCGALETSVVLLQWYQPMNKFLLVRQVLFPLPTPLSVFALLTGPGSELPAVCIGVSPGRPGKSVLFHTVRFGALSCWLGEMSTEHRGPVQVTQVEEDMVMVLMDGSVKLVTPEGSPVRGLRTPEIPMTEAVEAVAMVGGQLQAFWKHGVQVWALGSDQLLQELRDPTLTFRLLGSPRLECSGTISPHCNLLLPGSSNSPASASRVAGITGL
Cytochrome P450 3A4, sequence (P08684 whole entry): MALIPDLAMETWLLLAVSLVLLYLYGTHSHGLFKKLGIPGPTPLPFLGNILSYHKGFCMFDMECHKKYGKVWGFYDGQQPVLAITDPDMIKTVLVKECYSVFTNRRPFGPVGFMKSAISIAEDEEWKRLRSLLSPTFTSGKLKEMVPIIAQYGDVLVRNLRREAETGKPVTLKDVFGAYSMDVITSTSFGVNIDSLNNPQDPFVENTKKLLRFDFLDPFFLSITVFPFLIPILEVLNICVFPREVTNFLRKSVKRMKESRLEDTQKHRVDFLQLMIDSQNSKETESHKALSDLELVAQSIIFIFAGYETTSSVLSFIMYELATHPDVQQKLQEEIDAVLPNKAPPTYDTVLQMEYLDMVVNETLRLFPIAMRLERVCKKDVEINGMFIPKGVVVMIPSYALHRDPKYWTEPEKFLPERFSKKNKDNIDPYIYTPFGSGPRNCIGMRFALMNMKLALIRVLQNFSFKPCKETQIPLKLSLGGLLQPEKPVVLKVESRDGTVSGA

For `CN(C)C(=O)c1cc(-c2cnc3c(c2)C2(CCCC2)CN3)ccc1N`, it took 9800 nM to reach half-maximal inhibition on Cytochrome P450 3A4 (IC50). For the same compound, affinity in [1] was put at a Ki of 28 nM.

`CCc1c[nH]c2ncc(-c3ccc(N)c(C(=O)N(C)C)n3)cc12` had a 50% inhibitory concentration (IC50) on Cytochrome P450 3A4 of 1600 nM. Besides, the predicted hepatic clearance in series [2] was 81 mL/min/kg; in series [3], 28 mL/min/kg; in series [4], 17 mL/min/kg. Besides, the affinity in [1] corresponds to a Ki of 3.3 nM.

In series [1], `CCc1c[nH]c2ncc(-c3ccc(N)c(C(=O)N(C)C)c3)c(Cl)c12` yielded a Ki of 2.6 nM.

Turning to `CCc1c[nH]c2ncc(-c3cccc(C(=O)N(C)C)c3)cc12`, the half-maximal inhibitory concentration (IC50) against Cytochrome P450 3A4 amounted to 1700 nM. For the same compound, the predicted hepatic clearance in series [2] was 84 mL/min/kg; in series [3], 43 mL/min/kg; in series [4], 18 mL/min/kg. The Ki in series [1] was 5.2 nM.

`CN(C)C(=O)c1c(N)ccc(-c2cnc3c(c2Cl)[C@]2(CC[C@](C)(C#N)CC2)CN3)c1F`: the Papp A→B at 10 µM in series [5] was found to be 26 ×10⁻⁶ cm/s. For the same compound, the concentration for half-maximal inhibition (IC50) in series [6] turned out to be 7900 nM.

Regarding `CN(C)C(=O)c1c(N)ccc(-c2cnc3c(c2Cl)C2(CCC2)CN3)c1F`, the 50% inhibitory concentration (IC50) against Cytochrome P450 3A4 was over 10000 nM.

Compound `Cc1c(-c2ccc(N)c(C(=O)N(C)C)c2F)cnc2c1C1(CC1)CN2` had an IC50 against Cytochrome P450 3A4 of 6500 nM. In [1], affinity was put at a Ki of 43 nM.

On to `CCc1c[nH]c2ncc(-c3ccc(N)c(C(=O)N(C)C)c3)c(CC)c12`, for which the Ki in [1] is 2.8 nM.

For `CN(C)C(=O)c1c(N)ccc(-c2cnc3c(c2Cl)[C@@]2(CC[C@@](C)(C(N)=O)C2)CN3)c1F`, in [5], the Papp A→B at 10 µM came to 0.4 ×10⁻⁶ cm/s. For the same compound, in series [6], the IC50 is over 25000 nM. In series [1], this compound yielded a Ki of 85 nM.

In series [1], `COc1ccccc1-c1c[nH]c2ncc(-c3ccc(N)c(C(=O)N(C)C)c3)cc12` displayed a Ki of 0.4 nM.

Turning to `CN(C)C(=O)c1c(N)ccc(-c2cnc3c(c2Cl)[C@]2(CC[C@@]4(CCCCNC4=O)C2)CN3)c1F`, in series [7], the Ki was 7.2 nM. The Papp A→B at 10 µM in [5] is 6.5 ×10⁻⁶ cm/s. Moreover, the IC50 in series [6] was found to be 1200 nM.

In the case of `CN(C)C(=O)c1c(N)ccc(-c2cnc3c(c2Cl)[C@]2(CC[C@](C)(C(N)=O)C2)CN3)c1F`, the clearance in series [8] came to 57 mL/min/kg. Also, the bioavailability in series [9] is 13%. Further, the Papp in series [5] (mdck1, 10 µM) is reported as 0.3 10^-6 cm/s. Moreover, the CLhep predicted in [10] is 33 mL/min/kg; in [12] it was 18 mL/min/kg. Also, in series [6], the IC50 was determined as 440 nM. Further, the 50% effective concentration (EC50) with T-cell line was 1560 nM. This compound had a Ki in series [1] of 0.8 nM. Also, the Vd in [11] amounted to 1.9 L/kg. Besides, in series [13], the CLhep predicted at 1 µM was 9.5 mL/min/kg.

In series [1], `CCc1c[nH]c2ncc(-c3ccc(N)c(C(=O)N(C)C)c3)c(C)c12` displayed an inhibitory constant (Ki) of 2.4 nM.

Turning to `CN(C)C(=O)c1c(N)ccc(-c2cnc3c(c2Cl)[C@]2(CC[C@](C)(O)CC2)CN3)c1F`, the apical-to-basolateral permeability (Papp A→B) at 10 µM in series [5] was 5.7 ×10⁻⁶ cm/s. For the same compound, the half-maximal inhibitory concentration (IC50) in series [6] worked out at 3000 nM. In addition, the inhibition constant (Ki) in series [1] is 8.2 nM.

As to `CCc1c(Cl)[nH]c2ncc(-c3ccc(N)c(C(=O)N(C)C)c3)cc12`, inhibition on Cytochrome P450 3A4 was half-maximal at 200 nM (IC50). In addition, the affinity in series [1] corresponds to a Ki of 2.7 nM.

`CCc1c[nH]c2ncc(-c3ccc(N)c(C(=O)N(C)C)c3)cc12`: inhibition against Cytochrome P450 3A4 was half-maximal at 500 nM (IC50). Besides, the predicted hepatic clearance in series [2] is 80 mL/min/kg; in series [3] it was 25 mL/min/kg; in series [4], 12 mL/min/kg. The affinity in series [1] corresponds to a Ki of 2.1 nM.

With `CN(C)C(=O)c1c(N)ccc(-c2cnc3c(c2Cl)[C@]2(CC[C@@]4(CCCNC4=O)C2)CN3)c1F`, the inhibitory constant (Ki) in [7] is 6.5 nM. The Papp A→B at 10 µM in [5] worked out at 7.1 ×10⁻⁶ cm/s. In addition, the IC50 in series [6] is 1700 nM.

Turning to `CN(C)C(=O)c1cc(-c2cnc3c(c2)C2(CCC2)CN3)ccc1N`, the concentration for half-maximal inhibition (IC50) against Cytochrome P450 3A4 was over 10000 nM. Further, the inhibition constant (Ki) in series [1] turned out to be 66 nM.

Turning to `CN(C)C(=O)c1cc(-c2cnc3c(c2)C2(CC2)CN3)ccc1N`, the IC50 against Cytochrome P450 3A4 was over 10000 nM. Moreover, the affinity in series [1], expressed as Ki, was 33 nM.

Consider `CCc1c[nH]c2ncc(-c3ccc(N)c(C(=O)N(C)C)c3F)cc12`, for which half-maximal inhibition against Cytochrome P450 3A4 (IC50) was put at 700 nM. The results for the predicted hepatic clearance in [2], in series [3] and in series [4] were 80 mL/min/kg, 37 mL/min/kg and 16 mL/min/kg, respectively. Also, affinity in [1] was put at a Ki of 0.47 nM.

For the compound `CN(C)C(=O)c1c(N)ccc(-c2cnc3c(c2Cl)C2(CCCC2)CN3)c1F`, the 50% inhibitory concentration (IC50) at Cytochrome P450 3A4 worked out at 800 nM; in series [6] it was 1500 nM. In addition, the Papp A→B at 10 µM in [5] amounted to 23 ×10⁻⁶ cm/s. This compound returned an inhibition constant Ki in series [1] of 2.5 nM.

With `CN(C)C(=O)c1cc(-c2cnc3[nH]ccc3c2)ccc1N`, in series [1], affinity was put at a Ki of 1.5 nM.

For the compound `CNC(=O)[C@H]1CC[C@@]2(CNc3ncc(-c4ccc(N)c(C(=O)N(C)C)c4F)c(Cl)c32)C1` (racemic), the Papp A→B at 10 µM in series [5] amounted to 0.8 ×10⁻⁶ cm/s. In addition, in series [6], the IC50 was 7400 nM. The compound further showed an inhibitory constant (Ki) in series [1] of 63 nM.

Regarding `CN(C)C(=O)c1c(N)ccc(-c2cnc3c(c2Cl)[C@]2(CC[C@](C)(C(N)=O)C2)CN3)c1F` (racemic), the apical-to-basolateral permeability (Papp A→B) at 10 µM in [5] was 0.3 ×10⁻⁶ cm/s. In series [6], the IC50 was determined as 1100 nM. Besides, the inhibitory constant (Ki) in [1] is 2 nM.

As for `CN(C)C(=O)c1c(N)ccc(-c2cnc3c(c2Cl)[C@]2(CC[C@H](c4ncn[nH]4)C2)CN3)c1F` (racemic), in series [5], the Papp A→B at 10 µM was determined as 0.4 ×10⁻⁶ cm/s. Besides, the IC50 in series [6] was 15000 nM. This compound also came in with an inhibition constant (Ki) in series [1] of 14 nM.

As for `CN(C)C(=O)c1c(N)ccc(-c2cnc3c(c2Cl)[C@]2(CC[C@H](C(N)=O)C2)CN3)c1F` (racemic), the Papp A→B at 10 µM in series [5] turned out to be 0.2 ×10⁻⁶ cm/s. For the same compound, the concentration for half-maximal inhibition (IC50) in series [6] turned out to be 14000 nM. This compound showed a Ki in series [1] of 1.8 nM.

With `CN(C)C(=O)c1c(N)ccc(-c2cnc3c(c2Cl)[C@]2(CC[C@H](O)C2)CN3)c1F` (racemic), the Papp A→B at 10 µM in series [5] is 5 ×10⁻⁶ cm/s. Besides, the IC50 in [6] was determined as 5000 nM.

`CN(C)C(=O)c1c(N)ccc(-c2cnc3c(c2Cl)[C@]2(CC[C@](C)(C#N)C2)CN3)c1F` (racemic): in series [5], the Papp A→B at 10 µM was determined as 21 ×10⁻⁶ cm/s. Also, the half-maximal inhibitory concentration (IC50) in [6] is 1700 nM. The affinity in series [1] corresponds to a Ki of 11 nM.

As for `CN(C)C(=O)c1c(N)ccc(-c2cnc3c(c2Cl)[C@]2(CC[C@](C)(O)C2)CN3)c1F` (racemic), the Papp A→B at 10 µM in series [5] amounted to 4.1 ×10⁻⁶ cm/s. In addition, the concentration for half-maximal inhibition (IC50) in series [6] worked out at 2000 nM. Also, the inhibition constant Ki in series [1] is 8.1 nM.

In general, IC50 refers to the midpoint of a concentration-inhibition curve. For orientation: Ki means the equilibrium dissociation constant of an inhibitor or competing ligand from its target. What is called Papp A→B is how fast a substance crosses the layer from the apical side. Usually clearance stands for a measure of how efficiently the substance is removed, as volume per time. By bioavailability is commonly meant dose-corrected exposure relative to a reference, in per cent. For orientation: EC50 means the concentration that produces a half-maximal response. The Vd is the apparent volume that relates the amount in the body to the concentration in plasma or blood.
